Assay results reported in BindingDB's records for patent US11918568 (Sanford Burnham Prebys Medical Discovery Institute, 2024).

Molecular target: Nicotinamide phosphoribosyltransferase (Homo sapiens, UniProt P43490)
Assay: NAMPT Enzyme Activating Effect (In Vitro Cell-Free Enzyme Assay

Chain of Nicotinamide phosphoribosyltransferase (P43490 whole entry): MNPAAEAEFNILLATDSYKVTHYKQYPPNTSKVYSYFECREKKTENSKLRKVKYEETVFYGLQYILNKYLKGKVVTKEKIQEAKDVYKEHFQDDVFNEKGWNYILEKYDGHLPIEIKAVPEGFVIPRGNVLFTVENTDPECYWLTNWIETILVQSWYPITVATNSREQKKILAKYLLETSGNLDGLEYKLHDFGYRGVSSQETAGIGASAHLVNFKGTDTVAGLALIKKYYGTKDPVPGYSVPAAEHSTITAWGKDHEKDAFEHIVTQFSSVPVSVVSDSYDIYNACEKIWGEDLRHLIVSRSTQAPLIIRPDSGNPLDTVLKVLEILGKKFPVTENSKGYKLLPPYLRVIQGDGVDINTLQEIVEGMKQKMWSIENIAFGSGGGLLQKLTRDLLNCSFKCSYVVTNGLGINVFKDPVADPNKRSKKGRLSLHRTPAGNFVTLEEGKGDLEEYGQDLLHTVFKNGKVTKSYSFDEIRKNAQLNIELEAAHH

EC50: 230 nM
SMILES: O=C(NCc1ccncc1)Nc1ccn2nc(-c3ccccc3)nc2c1 [US11918568, Example 15]
